Source: the NIST ThermoML archive (doi:10.1021/je3011979)
± gives the expanded uncertainty stated by the source.

Experiments:
[1] = xn = mol fraction of the nth substance listed; conditions: 101 kPa, Liquid, Vibrating tube method
[2] = excess molar enthalpy (molar enthalpy of mixing); xn = mol fraction of the nth substance listed; conditions: 101 kPa, Liquid, Calvet calorimetry

CCCOC(C)=O [propyl ethanoate] + CCCCCCCC
Conditions	excess molar enthalpy [kcal/mol]	mass density [kg/m3]
[1], 291.15 K, x1 = 0.012	–	705.7 ± 0.3
[1], 291.15 K, x1 = 0.0405	–	708.9 ± 0.3
[1], 291.15 K, x1 = 0.1465	–	721.9 ± 0.3
[1], 291.15 K, x1 = 0.1905	–	727.8 ± 0.3
[1], 291.15 K, x1 = 0.2679	–	738.6 ± 0.3
[1], 291.15 K, x1 = 0.3573	–	752.2 ± 0.3
[1], 291.15 K, x1 = 0.4206	–	762.5 ± 0.3
[1], 291.15 K, x1 = 0.4808	–	772.7 ± 0.3
[1], 291.15 K, x1 = 0.5357	–	782.6 ± 0.3
[1], 291.15 K, x1 = 0.6206	–	798.8 ± 0.3
[1], 291.15 K, x1 = 0.6668	–	808.1 ± 0.3
[1], 291.15 K, x1 = 0.7082	–	816.9 ± 0.3
[1], 291.15 K, x1 = 0.7644	–	829.3 ± 0.3
[1], 291.15 K, x1 = 0.8181	–	841.9 ± 0.3
[1], 291.15 K, x1 = 0.8638	–	853.1 ± 0.3
[1], 291.15 K, x1 = 0.9109	–	865.1 ± 0.4
[1], 291.15 K, x1 = 0.9798	–	883.9 ± 0.4
[1], 291.15 K, x1 = 1	–	889.6 ± 0.2
[1], 298.15 K, x1 = 0.0149	–	700.3 ± 0.3
[1], 298.15 K, x1 = 0.0603	–	705.4 ± 0.3
[1], 298.15 K, x1 = 0.1039	–	710.8 ± 0.3
[1], 298.15 K, x1 = 0.2154	–	725.3 ± 0.3
[1], 298.15 K, x1 = 0.2536	–	730.6 ± 0.3
[1], 298.15 K, x1 = 0.3283	–	741.5 ± 0.3
[1], 298.15 K, x1 = 0.3895	–	751.1 ± 0.3
[1], 298.15 K, x1 = 0.4733	–	765 ± 0.3
[1], 298.15 K, x1 = 0.5382	–	776.6 ± 0.3
[1], 298.15 K, x1 = 0.5953	–	787.3 ± 0.3
[1], 298.15 K, x1 = 0.6543	–	799 ± 0.3
[1], 298.15 K, x1 = 0.7043	–	809.4 ± 0.3
[1], 298.15 K, x1 = 0.7628	–	822.2 ± 0.3
[1], 298.15 K, x1 = 0.8145	–	834.2 ± 0.3
[1], 298.15 K, x1 = 0.862	–	845.6 ± 0.3
[1], 298.15 K, x1 = 0.9221	–	860.9 ± 0.4
[1], 298.15 K, x1 = 0.9349	–	864.3 ± 0.4
[1], 298.15 K, x1 = 1	–	882.5 ± 0.2
[1], 318.15 K, x1 = 0.044	–	687.1 ± 0.3
[1], 318.15 K, x1 = 0.0919	–	692.5 ± 0.3
[1], 318.15 K, x1 = 0.1675	–	701.7 ± 0.3
[1], 318.15 K, x1 = 0.2438	–	711.7 ± 0.3
[1], 318.15 K, x1 = 0.3148	–	721.6 ± 0.3
[1], 318.15 K, x1 = 0.3866	–	732.3 ± 0.3
[1], 318.15 K, x1 = 0.4471	–	741.8 ± 0.3
[1], 318.15 K, x1 = 0.5188	–	753.7 ± 0.3
[1], 318.15 K, x1 = 0.5695	–	762.8 ± 0.3
[1], 318.15 K, x1 = 0.6293	–	773.9 ± 0.3
[1], 318.15 K, x1 = 0.6793	–	783.8 ± 0.3
[1], 318.15 K, x1 = 0.7422	–	796.8 ± 0.3
[1], 318.15 K, x1 = 0.7792	–	804.8 ± 0.3
[1], 318.15 K, x1 = 0.8435	–	819.5 ± 0.3
[1], 318.15 K, x1 = 0.8743	–	826.9 ± 0.3
[1], 318.15 K, x1 = 0.9284	–	840.5 ± 0.4
[1], 318.15 K, x1 = 1	–	859.8 ± 0.2
[1], 328.15 K, x1 = 0.0249	–	676.7 ± 0.3
[1], 328.15 K, x1 = 0.1032	–	685.4 ± 0.3
[1], 328.15 K, x1 = 0.1801	–	694.6 ± 0.3
[1], 328.15 K, x1 = 0.2554	–	704.4 ± 0.3
[1], 328.15 K, x1 = 0.3244	–	713.9 ± 0.3
[1], 328.15 K, x1 = 0.4	–	725 ± 0.3
[1], 328.15 K, x1 = 0.4761	–	737 ± 0.3
[1], 328.15 K, x1 = 0.5341	–	746.7 ± 0.3
[1], 328.15 K, x1 = 0.5975	–	757.9 ± 0.3
[1], 328.15 K, x1 = 0.6603	–	769.7 ± 0.3
[1], 328.15 K, x1 = 0.7147	–	780.7 ± 0.3
[1], 328.15 K, x1 = 0.7686	–	791.9 ± 0.3
[1], 328.15 K, x1 = 0.8149	–	802.1 ± 0.3
[1], 328.15 K, x1 = 0.8651	–	813.8 ± 0.3
[1], 328.15 K, x1 = 0.9233	–	828 ± 0.3
[1], 328.15 K, x1 = 0.9404	–	832.4 ± 0.4
[1], 328.15 K, x1 = 1	–	848.3 ± 0.2
[2], 291.15 K, x1 = 0.0879	0.109 ± 0.00167	–
[2], 291.15 K, x1 = 0.1784	0.183 ± 0.00191	–
[2], 291.15 K, x1 = 0.2664	0.2424 ± 0.00215	–
[2], 291.15 K, x1 = 0.3472	0.2808 ± 0.00239	–
[2], 291.15 K, x1 = 0.4208	0.3023 ± 0.00263	–
[2], 291.15 K, x1 = 0.486	0.3102 ± 0.00263	–
[2], 291.15 K, x1 = 0.5436	0.3088 ± 0.00263	–
[2], 291.15 K, x1 = 0.5927	0.3004 ± 0.00263	–
[2], 291.15 K, x1 = 0.618	0.2913 ± 0.00239	–
[2], 291.15 K, x1 = 0.6703	0.2722 ± 0.00239	–
[2], 291.15 K, x1 = 0.7256	0.2438 ± 0.00215	–
[2], 291.15 K, x1 = 0.7843	0.206 ± 0.00191	–
[2], 291.15 K, x1 = 0.8412	0.164 ± 0.00191	–
[2], 291.15 K, x1 = 0.8983	0.112 ± 0.00167	–
[2], 291.15 K, x1 = 0.9546	0.0557 ± 0.00143	–
[2], 298.15 K, x1 = 0.0883	0.103 ± 0.00143	–
[2], 298.15 K, x1 = 0.1747	0.174 ± 0.00191	–
[2], 298.15 K, x1 = 0.2568	0.2309 ± 0.00215	–
[2], 298.15 K, x1 = 0.3398	0.2701 ± 0.00239	–
[2], 298.15 K, x1 = 0.4117	0.2913 ± 0.00239	–
[2], 298.15 K, x1 = 0.4788	0.3004 ± 0.00263	–
[2], 298.15 K, x1 = 0.5346	0.2985 ± 0.00239	–
[2], 298.15 K, x1 = 0.5849	0.2913 ± 0.00239	–
[2], 298.15 K, x1 = 0.6055	0.2866 ± 0.00239	–
[2], 298.15 K, x1 = 0.655	0.2722 ± 0.00239	–
[2], 298.15 K, x1 = 0.7074	0.2507 ± 0.00215	–
[2], 298.15 K, x1 = 0.7607	0.222 ± 0.00215	–
[2], 318.15 K, x1 = 0.0767	0.0942 ± 0.00167	–
[2], 318.15 K, x1 = 0.1676	0.177 ± 0.00191	–
[2], 318.15 K, x1 = 0.2591	0.2433 ± 0.00215	–
[2], 318.15 K, x1 = 0.3352	0.2818 ± 0.00239	–
[2], 318.15 K, x1 = 0.4086	0.305 ± 0.00263	–
[2], 318.15 K, x1 = 0.4719	0.3117 ± 0.00263	–
[2], 318.15 K, x1 = 0.5293	0.3098 ± 0.00263	–
[2], 318.15 K, x1 = 0.5791	0.3004 ± 0.00263	–
[2], 318.15 K, x1 = 0.5859	0.2983 ± 0.00263	–
[2], 318.15 K, x1 = 0.6316	0.2847 ± 0.00239	–
[2], 318.15 K, x1 = 0.6848	0.2648 ± 0.00239	–
[2], 318.15 K, x1 = 0.7377	0.2392 ± 0.00215	–
[2], 318.15 K, x1 = 0.7936	0.2065 ± 0.00191	–
[2], 318.15 K, x1 = 0.8521	0.163 ± 0.00191	–
[2], 318.15 K, x1 = 0.9064	0.114 ± 0.00167	–
[2], 318.15 K, x1 = 0.9555	0.0595 ± 0.00167	–
